# Laboratory results from patent publication EP4702986A1, “POLYPEPTIDE AND USE THEREOF” (Biocells (Beijing) Biotech Co., Ltd., priority 2023, dated 2024).
# Where two headings read alike, the source gives them in different places. Numbered stars: 1 amine (or outer) side, 2 acyl side, 3 side chain; on linkers, the order of the positions; unused ones are H or OH. Side chains are listed from the residue outwards. Ends that are not written are not given here. Peptide text beside a SMILES is read from it. * marks the point of attachment. X1 = C[C@H](NC(=O)[C@@H]1CCCN1C(=O)[C@@H](N)CSC1CC(=O)N(CCC(=O)*)C1=O)C(=O)N[C@@H](CCCCN)C(=O)O; γGlu = O=C(O)[C@H](CCC(=O)[*:2])N[*:1]; Fumaroyl = O=C(O)/C=C/C(=O)*; Suc = O=C(CCC(=O)[*:2])[*:1]; Lauroyl = CCCCCCCCCCCC(=O)*; AEEA = NCCOCCOCC(=O)O
# How the values were obtained:
# [1] = molecular target: T1, human ETB receptor (Homo sapiens, UniProt P24530); assay: Determination of EC50 of polypeptides against human ETB receptor (IP-One Gq kit); format: cell-based
# T1 construct: expressed in transfected cells; host or cells: 293T-17 cells, transient transfection
# T1 sequence (P24530 27-442): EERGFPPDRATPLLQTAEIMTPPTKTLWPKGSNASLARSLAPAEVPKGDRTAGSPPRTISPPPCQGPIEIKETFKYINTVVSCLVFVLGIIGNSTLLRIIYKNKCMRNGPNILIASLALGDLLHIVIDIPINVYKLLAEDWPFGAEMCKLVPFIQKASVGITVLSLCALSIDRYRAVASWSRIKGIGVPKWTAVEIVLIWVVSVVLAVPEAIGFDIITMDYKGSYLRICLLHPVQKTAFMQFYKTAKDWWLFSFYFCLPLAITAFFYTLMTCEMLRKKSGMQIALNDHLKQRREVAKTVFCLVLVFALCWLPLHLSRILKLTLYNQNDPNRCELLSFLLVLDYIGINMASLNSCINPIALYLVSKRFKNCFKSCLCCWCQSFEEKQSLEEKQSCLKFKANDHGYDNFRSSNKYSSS
# Protocol: 293T-17 cells were seeded at a density of 650,000 cells per well in a 6-well plate and cultured overnight in an incubator at 37°C and 5% CO2. Afterward, the cells were transfected with an expression vector, PCDNA3.1-hETB which contained a human ETB receptor gene, at a plasmid concentration of 2.5 µg per well. The cells were further cultured for 48 hours, and green fluorescence expression was observed under a fluorescence microscope. The cells were then digested with trypsin and counted. The activity of compounds on the human ETB receptor was determined with the IP-One Gq kit from Cisbio Bioassays. The cells were suspended in Stim Buffer provided in the kit and the cell suspension was added to a 96-well detection plate at 7 µL cell suspension (containing 30,000 cells) per well. The polypeptides to be tested (prepared according to the Preparation Example of the invention) were diluted in Stim B to obtain a gradient of 11 concentration points. For each concentration point, the polypeptides to be tested were dissolved in Stim B to be at a concentration of 2×, and added at 7 µL to the test cells, while 7 µL of PBS solution was added to the cells in the negative control wells. The plate was sealed and incubated at 37°C for 1 hour in a cell culture incubator. Detection wells, positive control wells containing human endothelin ET1 (ET1: […] (C1-C15,C3-C11)), and PBS control wells were each added with 3 µL of IP1 d2 working solution and 3 µL of IP1 Tb cryptotate Antibody working solution. The plate was then sealed and incubated in the dark at room temperature (25°C±5°C) for 1 hour. The plate seal was removed, and the […] at 665 nm and 620 nm was measured with an ID5 microplate reader. The ratio of the acceptor emission signal to the donor emission signal, i.e., (signal at 665 nm/signal at 620 nm)×10^4, was calculated for each well. With F representing the average value of values of signal at 665 nm/signal at 620 nm for the test samples at various concentrations, a scatterplot was plotted, where the abscissa represented the F value, and the ordinate represented the logarithmic value of the peptide concentration. A curve was fitted with an appropriate method to calculate EC50 values of the polypeptides against the human ETB receptor. Another method was provided for fitting a curve where activation rate of the test polypeptides at each concentration relative to the positive control sample human endothelin ET1 was calculated first with the method in Example 1, and a scatterplot was plotted, where the abscissa represented the activation rate, and the ordinate represented the logarithmic value of the polypeptide concentration. A curve was fitted with an appropriate method to calculate the EC50 values of the polypeptides against the human ETB receptor.
# [2] = molecular target: T1, human ETB receptor; assay: Screening of polypeptides for activity on human ETB receptor (IP-One Gq kit, % of positive control IRL1620); format: cell-based
# Protocol: 293T-17 cells were seeded at a density of 650,000 cells per well in a 6-well plate and cultured overnight in an incubator at 37°C and 5% CO2. Afterward, the cells were transfected with an expression vector, PCDNA3.1-hETB which contained a human ETB receptor gene, at a plasmid concentration of 2.5 µg per well. The cells were further cultured for 48 hours, and green fluorescence expression was observed under a fluorescence microscope. The cells were then digested with trypsin and counted. The activity of compounds on the human ETB receptor was determined with the IP-One Gq kit from Cisbio Bioassays. The cells were suspended in Stim Buffer provided in the kit and the cell suspension was added to a 96-well detection plate at 7 µL cell suspension (containing 30,000 cells) per well. The polypeptides to be screened for activity (prepared according to the Preparation Example of the invention) and polypeptide IRL1620 as positive control were dissolved in Stim B to be at a concentration of 2×, and 7 µL was added to the test cells, while 7 µL of PBS solution was added to the cells in the negative control wells. IRL1620 was used as the positive control polypeptide. The plate was sealed and incubated at 37°C for 1 hour in a cell culture incubator. Test wells, positive control wells, and PBS control wells were each added with 3 µL of IP1 d2 working solution and 3 µL of IP1 Tb cryptotate Antibody working solution. The plate was then sealed and incubated in the dark at room temperature (25°C±5°C) for 1 hour. The plate seal was removed, and the […] at 665 nm and 620 nm was measured with an ID5 microplate reader. The ratio of the acceptor emission signal to the donor emission signal, i.e., the value of (signal at 665 nm/signal at 620 nm)×10^4, was calculated for each well. With F1 representing the average value of values of signal at 665 nm/signal at 620 nm determined for the test sample at a specific concentration, F2 representing the average value of values of signal at 665 nm/signal at 620 nm determined for the positive control IRL1620 at the same concentration, and T1 representing the average value of values of signal at 665 nm/signal at 620 nm determined for the PBS negative control, the percentage of activity of the test polypeptide sample relative to the positive control sample IRL1620 is equal to (F1-T1)×100/(F2-T1). hETB sequence (NCBI accession number NM_000115.5).
# [3] = 293T-17 cells transfected with PCDNA3.1-hETB, read-out: hETBR agonist activity EC50/nM
compound,measurement,setting,value
CCCCCCCCCCCC(=O)N[C@@H](CCC(=O)NCCOCCOCC(=O)NCCCC[C@H](NC(=O)[C@H](Cc1c[nH]cn1)NC(=O)[C@H](C)NC(=O)[C@H](Cc1ccccc1)NC(=O)[C@H](Cc1ccc(O)cc1)NC(=O)[C@@H](NC(=O)[C@H](C)NC(=O)[C@H](CCC(=O)O)NC(=O)[C@H](CCC(=O)O)NC(=O)[C@H](CC(=O)O)NC(=O)/C=C/C(=O)O)C(C)C)C(=O)N[C@@H](CC(=O)O)C(=O)N[C@H](C(=O)N[C@H](C(=O)N[C@@H](Cc1c[nH]c2ccccc12)C(=O)O)[C@@H](C)CC)C(C)C)C(=O)O [BX229-Na] (Fumaroyl-DEEAVYFAHK([AEEA-γGlu-Lauroyl])DVIW-OH),EC50,[1]; [3],16.7 nM
CC[C@H](C)[C@H](NC(=O)[C@H](CC(=O)O)NC(=O)[C@H](CCCCNC(=O)COCCOCCNC(=O)CCN1C(=O)CC(SC[C@H](N)C(=O)N2CCC[C@H]2C(=O)N[C@@H](C)C(=O)N[C@@H](CCCCN)C(=O)O)C1=O)NC(=O)[C@H](Cc1c[nH]cn1)NC(=O)[C@H](C)NC(=O)[C@H](Cc1ccccc1)NC(=O)[C@H](Cc1ccc(O)cc1)NC(=O)[C@@H](NC(=O)[C@H](C)NC(=O)[C@H](CCC(=O)O)NC(=O)[C@H](CCC(=O)O)NC(=O)[C@H](CC(=O)O)NC(=O)/C=C/C(=O)O)C(C)C)C(=O)N[C@H](C(=O)N[C@@H](Cc1c[nH]c2ccccc12)C(=O)O)[C@@H](C)CC (stereo partly drawn) [BX-95] (Fumaroyl-DEEAVYFAHK([AEEA-X1])DIIW-OH),EC50,[1]; [3],45.6 nM
"CC[C@H](C)[C@H](NC(=O)[C@H](CC(=O)O)NC(=O)[C@H](CC(C)C)NC(=O)[C@H](Cc1c[nH]cn1)NC(=O)[C@H](C)NC(=O)[C@H](Cc1ccccc1)NC(=O)[C@H](Cc1ccc(O)cc1)NC(=O)[C@@H](NC(=O)[C@H](C)NC(=O)[C@H](CCC(=O)O)NC(=O)[C@H](CCC(=O)O)NC(=O)[C@H](CC(=O)O)NC(=O)CCC(=O)O)C(C)C)C(=O)N[C@H](C(=O)N[C@@H](Cc1c[nH]c2ccccc12)C(=O)O)[C@@H](C)CC [IRL1620, reference compound] (Suc-DEEAVYFAHLDIIW-OH)",EC50,[1],1.33 nM
Fum-DEEEVYFAHKDIIW (Fumaroyl-DEEEVYFAHKDIIW) [BX-52],"hETBR agonist activity, percentage of activity relative to IRL1620",[2],121.00%@100nM
same,"hETBR agonist activity, percentage of activity relative to IRL1620",[2]; @10nM,145.60%@10nM
Fum-DEEEVYFAHOrnDIIW [BX-59],"hETBR agonist activity, percentage of activity relative to IRL1620",[2],93.46%@100nM
same,"hETBR agonist activity, percentage of activity relative to IRL1620",[2]; @10nM,125.64%@10nM
"Suc-DE cyclo(CEEC)YFAHKDIIW (Suc-DECEECYFAHKDIIW; not fully specified (bridges); printed as Suc-DE cyclo(CEEC)YFAHKDIIW; also: cyclo(CEEC) in N-terminal extension, bond type not given here) [BX-57]","hETBR agonist activity, percentage of activity relative to IRL1620",[2],121.58%@100nM
same,"hETBR agonist activity, percentage of activity relative to IRL1620",[2]; @10nM,86.20%@10nM
